Test results published in US9493441B2, “Acyclic cyanoethylpyrazoles as janus kinase inhibitors” (Merck Sharp & Dohme Corp., priority 2011, dated 2016).
pIC50: −log10 of the molar value. Where two headings read alike, the source gives them in different places.

Tests used:
JAK2 = JAK2 (Homo sapiens (Human), UniProt O60674); test: Jak biochemical HTRF assay, JAK2; conditions: for IC50: JAK2 IC50 (nM), recombinant GST-tagged catalytic domain, [ATP] […]
JAK1 = JAK1 (Homo sapiens (Human), UniProt P23458); test: Jak biochemical HTRF assay, JAK1; conditions: for IC50: JAK1 IC50 (nM), recombinant GST-tagged catalytic domain, [ATP] 31.8 μM
Chain of JAK1 (P23458 875-1153): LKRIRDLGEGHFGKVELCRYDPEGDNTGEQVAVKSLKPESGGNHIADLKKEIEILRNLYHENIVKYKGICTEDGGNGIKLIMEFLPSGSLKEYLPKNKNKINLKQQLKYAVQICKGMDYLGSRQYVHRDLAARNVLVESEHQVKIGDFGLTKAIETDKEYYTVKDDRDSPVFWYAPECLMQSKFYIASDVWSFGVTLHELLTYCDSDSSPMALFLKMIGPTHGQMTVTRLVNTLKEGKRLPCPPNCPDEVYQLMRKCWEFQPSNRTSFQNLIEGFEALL

Chain of JAK2 (O60674 849-1124): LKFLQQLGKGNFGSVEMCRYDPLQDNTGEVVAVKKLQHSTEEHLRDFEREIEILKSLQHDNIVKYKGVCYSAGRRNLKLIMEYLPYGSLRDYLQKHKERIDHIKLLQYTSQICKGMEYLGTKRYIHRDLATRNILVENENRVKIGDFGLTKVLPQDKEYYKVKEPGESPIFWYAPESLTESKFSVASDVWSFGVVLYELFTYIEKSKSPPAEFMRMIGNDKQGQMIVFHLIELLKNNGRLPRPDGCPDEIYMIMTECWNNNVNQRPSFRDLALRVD

IC50 (JAK2)	IC50 (JAK1)	pIC50 (JAK2; read-out: JAK2 IC50, recombinant GST-tagged catalytic domain, [ATP] […])	pIC50 (JAK1; read-out: JAK1 IC50, recombinant GST-tagged catalytic domain, [ATP] 31.8 μM)	Compound
425 nM	131 nM			N#CCC(C1CC1)n1cc(C(N)=O)c(Nc2cncc(C#N)c2)n1 (stereo not shown) [Example 4-18, 1-(2-cyano-1-cyclopropylethyl)-3-[(5-cyanopyridin-3-yl)amino]-1H-pyrazole-4-carboxamide]
17 nM	2 nM			N#CCC(C1CC1)n1cc(C(N)=O)c(Nc2ccc3c(c2)CCC3=O)n1 (stereo not shown) [Example 4-19, 1-(2-cyano-1-cyclopropylethyl)-3-[(1-oxo-2,3-dihydro-1H-inden-5-yl)amino]-1H-pyrazole-4-carboxamide]
87 nM	24 nM			N#CCC(C1CC1)n1cc(C(N)=O)c(Nc2ccc3c(c2)OCCO3)n1 (stereo not shown) [Example 4-20, 1-(2-cyano-1-cyclopropylethyl)-3-(2,3-dihydro-1,4-benzodioxin-6-ylamino)-1H-pyrazole-4-carboxamide]
45 nM	8 nM			CC(=O)Nc1ccc(Nc2nn(C(CC#N)C3CC3)cc2C(N)=O)cc1 (stereo not shown) [Example 4-21, 3-{[4-(acetylamino)phenyl]amino}-1-(2-cyano-1-cyclopropylethyl)-1H-pyrazole-4-carboxamide]
16 nM	3 nM			CN(C)C(=O)c1ccc(Nc2nn(C(CC#N)C3CC3)cc2C(N)=O)cc1 (stereo not shown) [Example 4-22, 1-(2-cyano-1-cyclopropylethyl)-3-{[4-(dimethylcarbamoyl)phenyl]amino}-1H-pyrazole-4-carboxamide]
262 nM	41 nM			N#CCC(C1CC1)n1cc(C(N)=O)c(Nc2ccc(-c3cnco3)cc2)n1 (stereo not shown) [Example 4-24, 1-(2-cyano-1-cyclopropylethyl)-3-{[4-(1,3-oxazol-5-yl)phenyl]amino}-1H-pyrazole-4-carboxamide]
221 nM	42 nM			Cc1nnc(-c2ccc(Nc3nn(C(CC#N)C4CC4)cc3C(N)=O)cc2)o1 (stereo not shown) [Example 4-25, 1-(2-cyano-1-cyclopropylethyl)-3-{[4-(5-methyl-1,3,4-oxadiazol-2-yl)phenyl]amino}-1H-pyrazole-4-carboxamide]
277 nM	65 nM			Cc1nc(-c2ccc(Nc3nn(C(CC#N)C4CC4)cc3C(N)=O)cc2)no1 (stereo not shown) [Example 4-26, 1-(2-cyano-1-cyclopropylethyl)-3-{[4-(5-methyl-1,2,4-oxadiazol-3-yl)phenyl]amino}-1H-pyrazole-4-carboxamide]
290 nM	166 nM			N#CCC(C1CC1)n1cc(C(N)=O)c(Nc2ccnc(Cl)c2)n1 (stereo not shown) [Example 4-27, 3-[(2-chloropyridin-4-yl)amino]-1-(2-cyano-1-cyclopropylethyl)-1H-pyrazole-4-carboxamide]
75 nM	11 nM			N#CCC(C1CC1)n1cc(C(N)=O)c(Nc2ccc(S(=O)(=O)C(F)(F)F)cc2)n1 (stereo not shown) [Example 4-28, 1-(2-cyano-1-cyclopropylethyl)-3-({4-[(trifluoromethyl)sulfonyl]phenyl}amino)-1H-pyrazole-4-carboxamide]
13 nM	2 nM			N#CCC(C1CC1)n1cc(C(N)=O)c(Nc2ccc(S(=O)(=O)C(F)F)cc2)n1 (stereo not shown) [Example 4-29, 1-(2-cyano-1-cyclopropylethyl)-3-({4-[(difluoromethyl)sulfonyl]phenyl}amino)-1H-pyrazole-4-carboxamide]
226 nM	15 nM			CN1C(=O)c2ccc(Nc3nn(C(CC#N)C4CC4)cc3C(N)=O)cc2C1(C)C (stereo not shown) [Example 4-30, 1-(2-cyano-1-cyclopropylethyl)-3-[(2,3,3-trimethyl-1-oxo-2,3-dihydro-1H-isoindol-5-yl)amino]-1H-pyrazole-4-carboxamide]
7 nM	2 nM			N#CCC(C1CC1)n1cc(C(N)=O)c(Nc2ccc3c(c2)CN(CC(F)(F)F)C3=O)n1 (stereo not shown) [Example 4-31, 1-(2-cyano-1-cyclopropylethyl)-3-{[1-oxo-2-(2,2,2-trifluoroethyl)-2,3-dihydro-1H-isoindol-5-yl]amino}-1H-pyrazole-4-carboxamide]
13 nM	1 nM			C[S+]([O-])c1ccc(Nc2nn(C(CC#N)C3CC3)cc2C(N)=O)cc1 (stereo not shown) [Example 4-32, 1-(2-cyano-1-cyclopropylethyl)-3-{[4-(methylsulfinyl)phenyl]amino}-1H-pyrazole-4-carboxamide]
23 nM	1 nM			CN1Cc2cc(Nc3nn(C(CC#N)C4CC4)cc3C(N)=O)ccc2C1=O (stereo not shown) [Example 4-33, 1-(2-cyano-1-cyclopropylethyl)-3-[(2-methyl-1-oxo-2,3-dihydro-1H-isoindol-5-yl)amino]-1H-pyrazole-4-carboxamide]
20 nM	2 nM			CC(C)(C)OC(=O)CN1Cc2cc(Nc3nn(C(CC#N)C4CC4)cc3C(N)=O)ccc2C1=O (stereo not shown) [Example 4-34, tert-butyl (5-{[4-carbamoyl-1-(2-cyano-1-cyclopropylethyl)-1H-pyrazol-3-yl]amino}-1-oxo-1,3-dihydro-2H-isoindol-2-yl)acetate]

IC50 (JAK2)	IC50 (JAK1)	pIC50 (JAK2; read-out: JAK2 IC50, recombinant GST-tagged catalytic domain, [ATP] […])	pIC50 (JAK1; read-out: JAK1 IC50, recombinant GST-tagged catalytic domain, [ATP] 31.8 μM)	Compound
34 nM	2 nM			N#CCC(C1CC1)n1cc(C(N)=O)c(Nc2ccc3c(c2)C=CS3(=O)=O)n1 (stereo not shown) [Example 4-35, 1-(2-cyano-1-cyclopropylethyl)-3-[(1,1-dioxido-1-benzothiophen-5-yl)amino]-1H-pyrazole-4-carboxamide]
39 nM	5 nM			Cc1noc(-c2ccc(Nc3nn(C(CC#N)C4CC4)cc3C(N)=O)cc2)n1 (stereo not shown) [Example 4-36, 1-(2-cyano-1-cyclopropylethyl)-3-{[4-(3-methyl-1,2,4-oxadiazol-5-yl)phenyl]amino}-1H-pyrazole-4-carboxamide]
44 nM	5 nM			N#CCC(C1CC1)n1cc(C(N)=O)c(Nc2ccnc(F)c2)n1 (stereo not shown) [Example 4-37, 1-(2-cyano-1-cyclopropylethyl)-3-[(2-fluoropyridin-4-yl)amino]-1H-pyrazole-4-carboxamide]
15 nM	1 nM			N#CCC(C1CC1)n1cc(C(N)=O)c(Nc2ccc3c(c2)CCS3(=O)=O)n1 (stereo not shown) [Example 5, 1-(2-Cyano-1-cyclopropylethyl)-3-[(1,1-dioxido-2,3-dihydro-1-benzothiophen-5-yl)amino]-1H-pyrazole-4-carboxamide]
115 nM	47 nM			CC(C)(O)COCc1cccc(Nc2nn(C(CC#N)C3CC3)cc2C(N)=O)c1 (stereo not shown) [Example 6-1, 1-(2-Cyano-1-cyclopropylethyl)-3-({3-[(2-hydroxy-2-methylpropoxy)methyl]phenyl}amino)-1H-pyrazole-4-carboxamide]
		5.83	6.44	N#CCC(C1CC1)n1cc(C(N)=O)c(Nc2ccccc2F)n1 (stereo not shown) [Example 6-2, 1-(2-cyano-1-cyclopropylethyl)-3-[(2-fluorophenyl)amino]-1H-pyrazole-4-carboxamide]
10 nM	1 nM			N#CCC(C1CC1)n1cc(C(N)=O)c(Nc2ccc(S(N)(=O)=O)cc2)n1 (stereo not shown) [Example 6-3, 1-(2-cyano-1-cyclopropylethyl]-3-[(4-sulfamoylphenyl)amino]-1H-pyrazole-4-carboxamide]
3 nM	1 nM			CN(C)S(=O)(=O)c1ccc(Nc2nn(C(CC#N)C3CC3)cc2C(N)=O)cc1 (stereo not shown) [Example 6-4, 1-(2-cyano-1-cyclopropylethyl)-3-{[4-(dimethylsulfamoyl)phenyl]amino}-1H-pyrazole-4-carboxamide]
34 nM	1 nM			N#CCC(C1CC1)n1cc(C(N)=O)c(Nc2ccc3c(c2)CN(CC(=O)O)C3=O)n1 (stereo not shown) [Example 8, (5-{[4-Carbamoyl-1-(2-cyano-1-cyclopropylethyl)-1H-pyrazol-3-yl]amino}-1-oxo-1,3-dihydro-2H-isoindol-2-yl)acetic acid]
524 nM	59 nM			CC(C#N)Cn1cc(C(N)=O)c(Nc2ccc(F)cc2)n1 (stereo not shown) [Example 9, 1-(2-Cyanopropyl)-3-[(4-fluorophenyl)amino]-1H-pyrazole-4-carboxamide]
45 nM	7 nM			CC(CC#N)n1cc(C(N)=O)c(Nc2ccc(S(C)(=O)=O)cc2)n1 (stereo not shown) [Example 10, 1-(2-Cyano-1-methylethyl)-3-{[4-(methylsulfonyl)phenyl]amino}-1H-pyrazole-4-carboxamide]
890 nM	55 nM			COC(=O)N1CCC(C(CC#N)n2cc(C(N)=O)c(Nc3ccc(F)cc3)n2)CC1 (stereo not shown) [Example 11-2, methyl 4-(1-{4-carbamoyl-3-[(4-fluorophenyl)amino]-1H-pyrazol-1-yl}-2-cyanoethyl)piperidine-1-carboxylate]
1500 nM	122 nM			CS(=O)(=O)CCOC(=O)N1CCC(C(CC#N)n2cc(C(N)=O)c(Nc3ccc(F)cc3)n2)CC1 (stereo not shown) [Example 11-3, 2-(methylsulfonyl)ethyl 4-(1-{4-carbamoyl-3-[(4-fluorophenyl)amino]-1H-pyrazol-1-yl}-2-cyanoethyl)piperidine-1-carboxylate]
861 nM	52 nM			N#CC[C@@H](C1CCN(C(=O)OC2COC2)CC1)n1cc(C(N)=O)c(Nc2ccc(F)cc2)n1 [Example 11-4, oxetan-3-yl 4-[(1S)-1-{4-carbamoyl-3-[(4-fluorophenyl)amino]-1H-pyrazol-1-yl}-2-cyanoethyl]piperidine-1-carboxylate]
1170 nM	33 nM			N#CC[C@@H](C1CCN(C(=O)OC2CCC2)CC1)n1cc(C(N)=O)c(Nc2ccc(F)cc2)n1 [Example 11-5, cyclobutyl 4-[(1S)-1-{4-carbamoyl-3-[(4-fluorophenyl)amino]-1H-pyrazol-1-yl}-2-cyanoethyl]piperidine-1-carboxylate]
1200 nM	69 nM			N#CC[C@@H](C1CCN(C(=O)OC2CCCC2)CC1)n1cc(C(N)=O)c(Nc2ccc(F)cc2)n1 [Example 11-6, cyclopentyl 4-[(1S)-1-{4-carbamoyl-3-[(4-fluorophenyl)amino]-1H-pyrazol-1-yl}-2-cyanoethyl]piperidine-1-carboxylate]
